According to US8927538B2, “Carbazole linked pyrrolo[2,1-c][1,4]benzodiazefine hybrids as potential anticancer agents and process for the preparation thereof” (Council of Scientific & Industrial Research, priority 2010, dated 2015):

How the values were obtained:
Colo-205 = assay: ACTREC in vitro cytotoxicity, Colo-205; format: cell-based
Procedure: (§1) In vitro biological activity studies were carried out at the Advance Center for Treatment Research & Education in Cancer.

HOP-62 = assay: ACTREC in vitro cytotoxicity, HOP-62; format: cell-based
Procedure: as §1

A-2780 = assay: ACTREC in vitro cytotoxicity, A-2780; format: cell-based; conditions: Ovary A-2780 (Table 4)
Procedure: as §1

GURAV = assay: ACTREC in vitro cytotoxicity, GURAV; format: cell-based
Procedure: as §1

KB = assay: ACTREC in vitro cytotoxicity, KB; format: cell-based
Procedure: as §1

[1] = tested on: duplex-form calf thymus DNA (CT-DNA); assay: Thermal denaturation studies (DNA binding); conditions: [PBD]:[DNA] molar ratio 1:5, CT-DNA 100 μM, ligand 20 μM; for ΔTm after incubation at 37 °C for 0 h: pH 7.00, 0 h; for ΔTm after incubation at 37 °C for 18 h: pH 7.00, 18 h
Procedure: Compounds have been subjected to thermal denaturation studies with duplex-form calf thymus DNA (CT-DNA) using a modification of a reported procedure. Working solutions in aqueous buffer ([…] NaH2PO4/Na2HPO4, 1 mM Na2EDTA, pH 7.00±0.01) containing CT-DNA (100 μM in phosphate) and the PBD (20 μM) have been prepared by addition of concentrated PBD solutions in DMSO to obtain a fixed [PBD]/[DNA] molar ratio of 1:5. The DNA-PBD solutions have been incubated at 37° C. for 0 and 18 hrs prior to analysis. Samples have been monitored at 260 nm using a Beckman DU-800 spectrophotometer fitted with high performance temperature controller, and heated at 1° C. min^−1 in the 40-110° C. range. DNA helix→coil transition temperatures (Tm) have been obtained from the maxima in the d(A260)/dT derivative plots. Drug-induced alterations in DNA melting behavior are given by: […]Tm=Tm(DNA+PBD)-Tm(DNA alone), where the Tm value for the PBD-free CT-DNA is 68.5 […]0.01.
The DNA-binding for these C8-linked carbazole-PBD hybrids has been examined by thermal denaturation studies using calf thymus (CT) DNA. […] Data for 6a, 6b, 6c, 14a, 14b, and 14d and DC-81 are included in Table 5 for comparison.

Si-Ha = assay: ACTREC in vitro cytotoxicity, Si-Ha; format: cell-based
Procedure: as §1

Zr-75-1 = assay: ACTREC in vitro cytotoxicity, Zr-75-1; format: cell-based
Procedure: as §1

MCF7 = assay: ACTREC in vitro cytotoxicity, MCF7; format: cell-based
Procedure: as §1

PC-3 = assay: ACTREC in vitro cytotoxicity, PC-3; format: cell-based
Procedure: as §1

A-549 = assay: ACTREC in vitro cytotoxicity, A-549; format: cell-based; conditions: Lung A-549 (Table 4)
Procedure: as §1

| SMILES | GI50 (Colo-205; Colon Colo-205 (Table 4)) [nM] | GI50 (Colo-205; colon (Colo205)) [nM] | GI50 (HOP-62; Lung HOP-62 (Table 4)) [nM] | GI50 (HOP-62; non small cell lung (HOPO62)) [nM] | GI50 (A-2780) [nM] | GI50 (GURAV; Oral GURAV (Table 4)) [nM] | GI50 (KB; Oral KB (Table 4)) [nM] | ΔTm after incubation at 37 °C for 0 h [1] [°C] | ΔTm after incubation at 37 °C for 18 h [1] [°C] | GI50 (Si-Ha; Cervix Si-Ha (Table 4)) [nM] | GI50 (Zr-75-1; Breast Zr-75-1 (Table 4)) [nM] | GI50 (MCF7; Breast MCF7 (Table 4)) [nM] | GI50 (MCF7; breast (MCF-7)) [nM] | GI50 (Zr-75-1; breast (Zr-75-1)) [nM] | GI50 (PC-3; Prostate PC-3 (Table 4)) [nM] | GI50 (A-549) [nM] | GI50 (PC-3; prostate (PC-3)) [nM] | GI50 (Si-Ha; Cervix (Si-Ha)) [nM] | GI50 (GURAV; oral (GURAV), text b39) [nM] | GI50 (KB; oral (KB), text b39) [nM] |
| --- | --- | --- | --- | --- | --- | --- | --- | --- | --- | --- | --- | --- | --- | --- | --- | --- | --- | --- | --- | --- |
| COc1cc2c(cc1OCCCn1c3ccccc3c3ccccc31)N=C[C@@H]1CCCN1C2=O [Compound 6a, 7-Methoxy-8-[3-(9H-9-carbazoly)propoxy]-(11aS)-1,2,3,11a-tetrahydro-5H-pyrrolo[2,1-c][1,4]-benzodiazepin-5-one] | 1680 | 1680 | 1930 | 1930 | 1510 | 1600 | 1870 | 4.2 | 5.1 | 1700 | 1890 | 1850 | 1850 |  |  |  |  |  |  |  |
| COc1cc2c(cc1OCCCCn1c3ccccc3c3ccccc31)N=C[C@@H]1CCCN1C2=O [Compound 6b, 7-Methoxy-8-[4-(9H-9-carbazoly)butoxy]-(11aS)-1,2,3,11a-tetrahydro-5H-pyrrolo[2,1-c][1,4]benzodiazepin-5-one] | 1700 | 1700 | 1930 | 1930 | 1570 | 1600 | 1870 | 4.3 | 4.8 | 1700 | 1810 | 2210 |  | 1810 |  |  |  |  |  |  |
| COc1cc2c(cc1OCCCCCCn1c3ccccc3c3ccccc31)N=C[C@@H]1CCCN1C2=O [Compound 6d, 7-Methoxy-8-[6-(9H-9-carbazoly)hexyloxy]-(11aS)-1,2,3,11a-tetrahydro-5H-pyrrolo[2,1-c][1,4]-benzodiazepin-5-one] | 1620 | 1620 | 1580 | 1580 | 1700 | 1710 | 1950 |  |  | 1580 | 2140 | 1650 | 1650 |  |  |  |  |  |  |  |
| COc1ccc(-c2ccc3c(c2)c2cc(-c4ccc(OC)cc4)ccc2n3CCCOc2cc3c(cc2OC)C(=O)N2CCC[C@H]2C=N3)cc1 [Compound 10d, 7-Methoxy-8-{3-[3,6-di(4-methoxyphenyl)-9H-9-carbazoly]propoxy}-(11aS)-1,2,3,11a-tetrahydro-5H-pyrrolo[2,1-c][1,4]-benzodiazepin-5-one] | 1700 | 1700 | 110 | 110 | 150 |  | 180 |  |  | 170 |  | 130 | 130 |  | 160 | 2100 |  |  |  |  |
| COc1ccc(-c2ccc3c(c2)c2cc(-c4ccc(OC)cc4)ccc2n3CCCCOc2cc3c(cc2OC)C(=O)N2CCC[C@H]2C=N3)cc1 [Compound 10e, 7-Methoxy-8-{4-[3,6-di(4-methoxyphenyl)-9H-9-carbazoly]butoxy}-(11aS)-1,2,3,11a-tetrahydro-5H-pyrrolo[2,1-c][1,4]-benzodiazepin-5-one] | 2900 |  |  |  | 2000 |  |  |  |  | 170 |  | 150 | 150 |  | 160 |  | 160 | 170 |  |  |
| COc1cc2c(cc1OCCCN1CCN(CCCCn3c4ccccc4c4ccccc43)CC1)N=C[C@@H]1CCCN1C2=O [Compound 14b, 7-Methoxy-8-(3-{4-[4-(9H-9-carbazoly)butyloxy]piperazino}propyloxy)-(11aS)-1,2,3,11a-tetrahydro-5H-pyrrolo[2,1-c][1,4]benzodiazepin-5-one] | 140 | 140 | 140 | 140 | 110 | 130 | 140 | 7.8 | 8.5 | 130 | 150 | 150 | 150 | 150 |  |  |  |  |  |  |
| COc1cc2c(cc1OCCCCN1CCN(CCCCn3c4ccccc4c4ccccc43)CC1)N=C[C@@H]1CCCN1C2=O [Compound 14d, 7-Methoxy-8-(4-{-4-[4-(9H-9-carbazoly)butyloxy]piperazino}butyloxy)-(11aS)-1,2,3,11a-tetrahydro-5H-pyrrolo[2,1-c][1,4]benzodiazepin-5-one] | 160 | 160 | 1820 |  | 160 | 170 | 150 | 7.9 | 8.4 | 170 | 150 | 170 | 150 | 170 |  |  |  |  | 170 | 150 |
